Reference: ChEMBL document CHEMBL1201862, “PubChem BioAssay data set” (2004)
Active and inactive are the calls of the source.

Key:
Fatty acid synthase [1] = biological target: T1, Fatty acid synthase (Homo sapiens, UniProt P49327); assay: FAS thioesterase domain inhibitors, dose response, biochemical, endpoint fluorescence intensity, uHTS hits (AID 624327); type: functional;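 also: fluorescence from hydrolysis of an O-methyl fluorescein acyl ester substrate by the enzyme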
Fatty acid synthase [2] = biological target: T1, Fatty acid synthase; assay: FAS thioesterase domain inhibitors, dose response, biochemical, kinetic fluorescence intensity (AID 624326); type: functional;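 also: rate of fluorescence rise from hydrolysis of a fluorogenic O-methyl fluorescein ester substrate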
[3] = biological target: T2, Heat shock factor protein 1 (Mus musculus, UniProt P38532); assay: inhibition of MG132-induced HSE-luciferase signal, confirmation, cell-based, NIH3T3, luminescence, dose retest (AID 2382); type: functional;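 also: NIH3T3 fibroblasts with HSF1-driven luciferase reporter stressed by proteasome inhibitor MG132; luminescence from HSF1-driven luciferase expression after 8 hours of MG132 stress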
T2 sequence (P38532 whole entry): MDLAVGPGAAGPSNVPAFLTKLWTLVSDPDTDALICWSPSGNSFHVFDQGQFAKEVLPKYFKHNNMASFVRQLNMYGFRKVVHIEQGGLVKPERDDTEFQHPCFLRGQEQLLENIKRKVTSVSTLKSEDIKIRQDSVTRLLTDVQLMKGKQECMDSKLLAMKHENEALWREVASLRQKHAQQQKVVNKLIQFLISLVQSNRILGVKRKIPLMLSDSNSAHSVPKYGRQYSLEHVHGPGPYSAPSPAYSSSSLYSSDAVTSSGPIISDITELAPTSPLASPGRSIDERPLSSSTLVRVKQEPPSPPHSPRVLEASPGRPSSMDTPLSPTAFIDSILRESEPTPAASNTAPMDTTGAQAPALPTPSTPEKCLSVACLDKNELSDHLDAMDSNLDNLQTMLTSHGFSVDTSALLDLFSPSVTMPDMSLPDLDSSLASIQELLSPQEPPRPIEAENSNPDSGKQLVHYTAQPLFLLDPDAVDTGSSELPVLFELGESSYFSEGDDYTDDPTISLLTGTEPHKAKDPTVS

[4] = biological target: Luciferin 4-monooxygenase (Photinus pyralis, UniProt P08659); assay: firefly luciferase enzyme inhibitors, dose response, biochemical, luminescence (AID 1891)
[5] = Luminescence Cell-Based Dose Confirmation HTS to Identify Inhibitors of Platelet Dense Granule Release. [Related pubchem assays: 1663 (Primary HTS), 1678 (Summary of Project)]; type: functional
[6] = biological target: T3, Polyadenylate-binding protein 1 (Homo sapiens, UniProt P11940); assay: PABP1 MLLE–PAM2 interaction inhibitors, dose response, miRNA deadenylation inhibitor project, biochemical, fluorescence polarization, Cy5-PAM2 peptide, secondary (AID 602260); type: functional; conditions: read-out: IC50_Mean
[7] = biological target: T3, Polyadenylate-binding protein 1; assay: PABP1 MLLE–PAM2 binding inhibitor potency, dose response, biochemical, fluorescence polarization, FITC-PAM2 peptide (AID 602259); type: functional; conditions: read-out: IC50_Mean
[8] = biological target: T4, Corticotropin-releasing factor receptor 2/Corticotropin-releasing factor-binding protein (Homo sapiens, UniProt P24387+Q13324); assay: activators of CRF receptor 2 with binding protein – uHTS hits, confirmation (AID 602473); type: functional; conditions: read-out: EC50_Mean
T4 sequence (Q13324 whole entry): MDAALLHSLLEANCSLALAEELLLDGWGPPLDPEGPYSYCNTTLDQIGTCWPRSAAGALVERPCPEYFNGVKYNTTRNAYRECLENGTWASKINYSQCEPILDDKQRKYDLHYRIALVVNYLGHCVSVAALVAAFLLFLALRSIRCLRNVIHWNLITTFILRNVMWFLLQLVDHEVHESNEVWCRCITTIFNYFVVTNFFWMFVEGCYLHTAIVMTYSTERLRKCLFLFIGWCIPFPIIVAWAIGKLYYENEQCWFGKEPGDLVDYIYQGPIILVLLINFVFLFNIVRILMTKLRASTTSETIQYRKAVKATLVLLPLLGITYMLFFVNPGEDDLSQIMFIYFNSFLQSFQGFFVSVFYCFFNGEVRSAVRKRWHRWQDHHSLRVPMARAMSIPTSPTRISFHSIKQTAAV
T4 sequence (P24387 whole entry): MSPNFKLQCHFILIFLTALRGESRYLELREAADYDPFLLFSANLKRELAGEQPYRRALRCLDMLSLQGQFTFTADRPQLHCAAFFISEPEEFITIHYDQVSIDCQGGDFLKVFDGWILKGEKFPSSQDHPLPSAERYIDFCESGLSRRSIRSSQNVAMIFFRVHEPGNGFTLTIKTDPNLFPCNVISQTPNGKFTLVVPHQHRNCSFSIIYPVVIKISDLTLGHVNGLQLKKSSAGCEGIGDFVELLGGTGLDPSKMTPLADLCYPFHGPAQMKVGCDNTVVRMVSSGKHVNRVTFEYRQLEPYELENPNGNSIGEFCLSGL

[9] = growth suppression of beta-catenin-knockout colon cells, dose response, cell-based, HCT116, human colon tumor (AID 1045); type: functional;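 also: HCT116 colon tumor cells with beta catenin knocked out; cells exposed to compound for 60 hours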
[10] = Luminescence Cell-Based Dose Response HTS to Identify Inhibitors of 5'UTR Stem-Loop Driven Prion Protein mRNA Translation in H4 Neuroglioblastoma Cells. [Related pubchem assays: 1827 (Project Summary), 1813 (Primary HTS)]; type: functional
[11] = tested on: Streptococcus sp. 'group A'; assay: growth inhibition of control SK(-) GAS strain, dose response, counter-screen for streptokinase expression inhibitor project, luminescence, kanamycin, BacTiterGlo, confirmation (AID 1900); type: functional, organism-based
[12] = growth suppression of PTEN-null colon cells, dose response, cell-based, HCT116 PTEN knockout (AID 1047); type: functional;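 also: HCT116 colon tumor cells with PTEN knocked out; cells exposed to compound for 60 hours before readout; potency for loss of cell viability measured by luminescence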
Streptokinase A = biological target: T5, Streptokinase A (Streptococcus pyogenes serotype M1, UniProt P10520); assay: S. pyogenes streptokinase expression inhibitors, potency, dose response, plasminogen activation absorbance, OD405 (AID 1914); type: functional, Streptococcus pyogenes M1 GAS;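 also: secreted streptokinase activity via plasminogen activation per viability signal from cell pellet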
T5 sequence (P10520 whole entry): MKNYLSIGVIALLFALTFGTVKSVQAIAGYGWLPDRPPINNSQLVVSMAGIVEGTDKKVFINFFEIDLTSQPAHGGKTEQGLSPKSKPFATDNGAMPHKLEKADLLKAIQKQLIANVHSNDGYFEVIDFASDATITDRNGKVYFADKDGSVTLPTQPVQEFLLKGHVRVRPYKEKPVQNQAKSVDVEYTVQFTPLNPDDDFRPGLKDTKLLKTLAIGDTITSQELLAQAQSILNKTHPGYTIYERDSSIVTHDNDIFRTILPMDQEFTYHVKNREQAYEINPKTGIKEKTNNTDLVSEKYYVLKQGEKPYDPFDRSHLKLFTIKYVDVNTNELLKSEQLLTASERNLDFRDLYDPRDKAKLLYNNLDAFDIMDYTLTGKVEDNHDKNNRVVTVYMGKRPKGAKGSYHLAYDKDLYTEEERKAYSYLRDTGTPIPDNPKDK

[13] = inhibitors of SNCA 5'UTR-driven reporter translation, confirmation, H4 neuroglioma cells, luminescence (AID 1988); type: functional, cell-based
Streptococcus = assay: Group A Streptococcus viability loss, dose response, counter-screen for streptokinase expression inhibitor project, luminescence, BacTiterGlo (AID 1915); type: functional, organism-based;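 also: potency for reduction of bacterial viability or growth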
[14] = inhibitors of firefly luciferase expression or activity, dose response, H4 neuroglioma cells, luminescence (AID 1990); type: functional, cell-based
Cytochrome P450 2C9 = Cytochrome P450 2C9 (Homo sapiens, UniProt P11712)
Cytochrome P450 2C9, sequence (P11712 whole entry): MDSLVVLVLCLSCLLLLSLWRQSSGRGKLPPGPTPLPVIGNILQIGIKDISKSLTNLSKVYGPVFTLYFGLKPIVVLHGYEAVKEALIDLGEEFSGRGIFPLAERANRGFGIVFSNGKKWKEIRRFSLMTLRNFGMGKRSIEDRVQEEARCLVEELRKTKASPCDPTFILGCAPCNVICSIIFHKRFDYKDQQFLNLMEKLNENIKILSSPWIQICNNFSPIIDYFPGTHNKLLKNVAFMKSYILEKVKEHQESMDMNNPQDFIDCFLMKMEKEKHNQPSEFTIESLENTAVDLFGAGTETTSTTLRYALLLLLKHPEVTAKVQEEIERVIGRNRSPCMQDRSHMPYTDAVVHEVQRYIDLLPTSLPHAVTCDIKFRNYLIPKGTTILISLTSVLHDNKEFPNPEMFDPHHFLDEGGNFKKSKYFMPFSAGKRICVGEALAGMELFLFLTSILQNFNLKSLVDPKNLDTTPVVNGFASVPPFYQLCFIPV

T1 sequence (P49327 whole entry, the tested form may be a part): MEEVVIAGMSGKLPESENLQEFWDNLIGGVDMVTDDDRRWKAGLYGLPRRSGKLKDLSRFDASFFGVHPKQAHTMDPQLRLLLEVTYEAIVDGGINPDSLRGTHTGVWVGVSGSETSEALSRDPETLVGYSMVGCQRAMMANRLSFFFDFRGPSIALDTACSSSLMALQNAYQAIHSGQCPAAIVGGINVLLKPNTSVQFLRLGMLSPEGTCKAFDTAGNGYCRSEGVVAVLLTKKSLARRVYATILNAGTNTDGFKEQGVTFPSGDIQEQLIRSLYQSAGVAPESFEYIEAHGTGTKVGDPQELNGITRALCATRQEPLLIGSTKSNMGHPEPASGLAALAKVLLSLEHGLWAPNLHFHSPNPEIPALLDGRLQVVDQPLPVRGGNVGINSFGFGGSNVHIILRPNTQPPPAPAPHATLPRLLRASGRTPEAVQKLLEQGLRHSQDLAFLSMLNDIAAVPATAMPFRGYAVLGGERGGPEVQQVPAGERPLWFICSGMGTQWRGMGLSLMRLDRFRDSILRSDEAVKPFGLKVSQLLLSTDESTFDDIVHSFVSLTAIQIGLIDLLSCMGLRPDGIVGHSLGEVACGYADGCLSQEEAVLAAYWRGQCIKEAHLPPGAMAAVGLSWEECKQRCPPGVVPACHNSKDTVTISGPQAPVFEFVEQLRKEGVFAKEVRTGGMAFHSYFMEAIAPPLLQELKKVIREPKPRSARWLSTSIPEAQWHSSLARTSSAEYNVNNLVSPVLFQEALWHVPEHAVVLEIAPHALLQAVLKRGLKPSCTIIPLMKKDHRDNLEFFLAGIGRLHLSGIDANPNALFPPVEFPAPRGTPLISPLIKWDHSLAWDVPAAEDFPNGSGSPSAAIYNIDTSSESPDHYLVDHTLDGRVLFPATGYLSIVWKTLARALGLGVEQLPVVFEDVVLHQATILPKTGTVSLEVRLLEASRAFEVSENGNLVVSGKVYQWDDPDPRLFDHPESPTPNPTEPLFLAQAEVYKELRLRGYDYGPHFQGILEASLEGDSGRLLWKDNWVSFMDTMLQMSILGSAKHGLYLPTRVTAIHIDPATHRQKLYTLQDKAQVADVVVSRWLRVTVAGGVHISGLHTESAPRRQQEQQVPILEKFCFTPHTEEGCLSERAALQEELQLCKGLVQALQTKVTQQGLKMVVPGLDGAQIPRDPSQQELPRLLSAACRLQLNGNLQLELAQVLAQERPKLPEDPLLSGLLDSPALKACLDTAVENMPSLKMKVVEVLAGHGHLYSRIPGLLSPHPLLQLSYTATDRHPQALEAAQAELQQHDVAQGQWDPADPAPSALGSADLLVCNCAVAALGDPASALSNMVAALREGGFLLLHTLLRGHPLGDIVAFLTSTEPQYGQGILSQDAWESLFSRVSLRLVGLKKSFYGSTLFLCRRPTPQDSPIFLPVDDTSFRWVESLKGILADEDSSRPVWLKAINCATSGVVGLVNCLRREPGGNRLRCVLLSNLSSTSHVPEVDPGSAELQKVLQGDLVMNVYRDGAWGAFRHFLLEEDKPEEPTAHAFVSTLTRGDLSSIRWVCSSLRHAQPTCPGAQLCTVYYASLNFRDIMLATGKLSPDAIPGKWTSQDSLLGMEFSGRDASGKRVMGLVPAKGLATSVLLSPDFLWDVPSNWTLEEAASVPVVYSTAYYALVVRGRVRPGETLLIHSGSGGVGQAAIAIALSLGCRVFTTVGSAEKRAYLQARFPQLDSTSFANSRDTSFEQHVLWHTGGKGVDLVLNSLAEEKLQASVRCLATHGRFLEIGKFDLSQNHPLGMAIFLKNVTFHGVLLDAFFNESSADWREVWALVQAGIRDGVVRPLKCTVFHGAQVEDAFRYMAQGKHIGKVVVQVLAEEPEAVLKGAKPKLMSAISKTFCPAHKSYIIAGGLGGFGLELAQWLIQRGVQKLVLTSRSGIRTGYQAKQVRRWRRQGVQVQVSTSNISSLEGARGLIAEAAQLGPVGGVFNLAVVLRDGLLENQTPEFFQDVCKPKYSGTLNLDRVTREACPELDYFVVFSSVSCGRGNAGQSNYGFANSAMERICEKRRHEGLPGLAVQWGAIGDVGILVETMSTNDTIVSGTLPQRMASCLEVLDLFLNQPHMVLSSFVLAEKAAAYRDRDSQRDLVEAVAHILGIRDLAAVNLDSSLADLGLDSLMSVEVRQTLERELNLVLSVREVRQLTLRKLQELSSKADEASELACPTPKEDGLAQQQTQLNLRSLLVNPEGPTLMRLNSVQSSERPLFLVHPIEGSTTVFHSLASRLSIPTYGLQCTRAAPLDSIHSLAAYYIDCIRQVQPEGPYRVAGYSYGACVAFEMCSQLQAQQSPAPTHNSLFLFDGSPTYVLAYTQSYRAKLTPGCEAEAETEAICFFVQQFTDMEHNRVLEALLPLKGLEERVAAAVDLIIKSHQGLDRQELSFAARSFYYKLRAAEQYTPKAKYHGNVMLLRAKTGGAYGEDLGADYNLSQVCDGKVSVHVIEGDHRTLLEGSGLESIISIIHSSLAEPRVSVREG
T3 sequence (P11940 whole entry): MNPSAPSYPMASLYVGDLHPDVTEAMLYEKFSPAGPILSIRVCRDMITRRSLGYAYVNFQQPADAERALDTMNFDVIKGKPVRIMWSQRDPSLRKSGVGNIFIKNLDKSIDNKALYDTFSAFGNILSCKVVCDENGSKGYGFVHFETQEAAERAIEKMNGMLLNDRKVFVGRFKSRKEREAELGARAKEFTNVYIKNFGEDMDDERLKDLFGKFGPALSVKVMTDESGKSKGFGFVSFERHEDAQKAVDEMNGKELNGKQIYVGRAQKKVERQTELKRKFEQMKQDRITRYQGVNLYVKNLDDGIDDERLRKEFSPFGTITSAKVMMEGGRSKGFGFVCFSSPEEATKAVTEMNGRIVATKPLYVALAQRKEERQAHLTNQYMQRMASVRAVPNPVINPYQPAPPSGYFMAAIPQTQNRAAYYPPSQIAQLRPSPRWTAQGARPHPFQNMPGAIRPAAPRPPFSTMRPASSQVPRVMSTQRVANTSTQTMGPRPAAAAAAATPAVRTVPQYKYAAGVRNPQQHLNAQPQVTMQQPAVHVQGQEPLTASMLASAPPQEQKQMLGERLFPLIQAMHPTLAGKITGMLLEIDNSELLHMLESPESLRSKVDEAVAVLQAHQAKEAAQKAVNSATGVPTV
Luciferin 4-monooxygenase, sequence (P08659 whole entry): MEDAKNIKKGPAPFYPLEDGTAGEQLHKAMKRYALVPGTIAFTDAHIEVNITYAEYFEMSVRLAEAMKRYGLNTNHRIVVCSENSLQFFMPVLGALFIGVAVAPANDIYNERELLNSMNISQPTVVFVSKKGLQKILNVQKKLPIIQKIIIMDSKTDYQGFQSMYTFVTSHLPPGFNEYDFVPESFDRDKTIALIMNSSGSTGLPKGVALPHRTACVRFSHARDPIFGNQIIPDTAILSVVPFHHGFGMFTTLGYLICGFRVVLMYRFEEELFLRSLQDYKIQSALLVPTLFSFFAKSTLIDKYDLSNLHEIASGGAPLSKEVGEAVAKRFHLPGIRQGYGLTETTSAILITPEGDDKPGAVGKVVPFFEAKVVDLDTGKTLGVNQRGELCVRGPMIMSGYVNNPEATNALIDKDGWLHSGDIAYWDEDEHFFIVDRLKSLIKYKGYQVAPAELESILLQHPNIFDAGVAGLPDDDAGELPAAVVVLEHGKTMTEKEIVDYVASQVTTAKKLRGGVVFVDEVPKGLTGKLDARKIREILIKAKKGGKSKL

For `CC(C)(C)N(Cc1ccccc1)C(=O)COC(=O)c1cccc([N+](=O)[O-])c1`, the IC50 (Fatty acid synthase [1]) was 4.39 µM (active) and the IC50 (Fatty acid synthase [2]) was 2.97 µM (active).
With `CCCNS(=O)(=O)c1ccc(OCC(=O)N2CCN(C)CC2)cc1` the EC50 [3] was > 195 µM (not active).
For `CCC(/N=c1\cc(-c2ccc(OC)c(OC)c2)oc2ccc(C)cc12)C(=O)O` (centres undefined), the EC50 [3] was > 195 µM (not active).
For `Cc1cc(=O)oc(C)c1C(=O)NCCNC(=O)c1c(C)cc(=O)oc1C`, the EC50 [4] was > 112 µM (not active) and the EC50 [5] was 28.8 µM (active).
For `Nc1c(NC(=O)CC[n+]2ccccc2)cccc1[N+](=O)[O-]`, the EC50 [3] was 7.93 µM (active).
In the case of `N#C/C(=C\c1ccccc1[N+](=O)[O-])C(=O)NC1CCCCC1`, the IC50 [6] is reported as > 66 µM (inactive), the IC50 [7] is reported as > 66 µM (inactive) and the EC50 [8] is reported as > 53 µM (inactive).
With `COc1ccc(-c2nn(-c3ccccc3)cc2/C=C/C(=O)O)cc1[N+](=O)[O-]` the IC50 (Fatty acid synthase [1]) was 12.1 µM (active) and the IC50 (Fatty acid synthase [2]) was 13.6 µM (active).
For `Cc1ccc(C)c(S(=O)(=O)N2CCN(C(=O)Cc3ccc(S(=O)(=O)N4CCOCC4)s3)CC2)c1`, the IC50 (Fatty acid synthase [1]) was 6.49 µM (active) and the IC50 (Fatty acid synthase [2]) was 7.72 µM (active).
For `CCn1cc(C(=O)NCc2ccc(Cl)cc2)c(=O)c2cc(S(=O)(=O)N(C)C)ccc21`, the IC50 (Fatty acid synthase [1]) was 9.03 µM (active) and the IC50 (Fatty acid synthase [2]) was 8.74 µM (active).
In the case of `Cc1ccc(Cl)cc1N1CCN(C(=O)c2cn(C)c(=O)c3c2c2ccccc2n3C)CC1`, the EC50 [9] is reported as 4.17 µM (active), the EC50 [10] is reported as 20.5 µM (active) and the EC50 [11] is reported as 3.51 µM (active). The EC50 [12] was 3.36 µM (active), the EC50 (Streptokinase A) was 9.73 µM (active) and the EC50 [13] was 11.4 µM (active). For the same molecule, the EC50 (Streptococcus) was 22.8 µM (active) and the EC50 [14] was 12.4 µM (active).
For `Cc1cnn(-c2cc(N/N=C/c3ccccc3F)ncn2)c1`, the EC50 [9] was 21 µM (active), the AC50 (Cytochrome P450 2C9) was 1.26 µM (inconclusive) and the EC50 [12] was 12.7 µM (active).
For `CCCc1nc2sc3c(c2c(=O)n1NC(=O)CCC(=O)OC)CCCC3`, the EC50 [4] was > 112 µM (not active) and the EC50 [5] was > 112 µM (not active).
